Key:
Assay type in all cases: in vivo
[1] = test system: mandarin orange tree (Satsuma mandarin); assay: preventing peel puffing and improving fruit quality, leaf spray on mandarin orange tree; conditions: for Fruit skin color: color chart 0 (poorly colored) to 12 (fully colored); for Degree of peel puffing: peel puffing index, 20 fruits, sprayed three times; for Phytotoxicity: scale of 1 to 5; for Sugar content: sugar refractometer; for Acidity: titratable citric acid content
Method: (§1) The effects of a quality improver in preventing peel puffing and improving fruit quality were evaluated using a mandarin orange tree (Satsuma mandarin). That is, the quality improver of Example 1 was sprayed on the mandarin orange tree at the polyvalent metal concentrations shown in Table 2 over three times from early September (one-month interval). Each treatment was conducted on each branch by spraying with a backpack sprayer.
The evaluation was carried out on 20 randomly selected fruits. The degree of peel puffing was evaluated by examining cross sections of the fruits based on a 4-point scale (none=0, mild=1, moderate=2, severe=3), and expressed by the following equation: peel puffing index={(1×the number of fruits with mild peel puffing)+(2×the number of fruits with moderate peel puffing)+(3×the number of fruits with severe peel puffing)}×100/(3×the number of fruits examined). The fruit skin color was determined using a color chart based on a scale of 0 (poorly colored) to 12 (fully colored). The sugar content was determined using a sugar refractometer. The acidity was expressed as titratable citric acid content. The dirt on a fruit surface was evaluated by a ratio of the surface area soiled whitish to the total surface area of the fruit on a scale of 1 to 5 (not soiled=1, slightly soiled=2, a little soiled=3, moderately soiled=4, much soiled=5). The phytotoxicity was evaluated on a scale of 1 to 5 (normal=1, slightly damaged=2, a little damaged=3, moderately damaged=4, much damaged=5).
The examinations were carried out in the same manner as in Application Example 1 except that the quality improvers of Examples 2 to 21 and Comparative Examples 1 to 4 were used instead of the quality improver of Example 1.

[2] = test system: Welsh onion plant (Sakaiyakko); assay: reducing leaf blight and improving quality, spray on Welsh onion plant; conditions: for Leaf blight: leaf blight index, 50 plants, sprayed three times; for Phytotoxicity: scale of 1 to 5
Method: The effects of a quality improver in reducing leaf blight and improving fruit quality were evaluated using a Welsh onion plant (Sakaiyakko).
That is, the quality improver of Example 1 was sprayed on the Welsh onion at the polyvalent metal concentrations shown in Table 7 over three times from early June (one-week interval) using a backpack sprayer.
The evaluation was carried out on 50 randomly selected plants. The leaf blight was determined by evaluating the degree of leaf blight based on a 4-point scale (none=0, mild=1, moderate=2, severe=3), and expressed by the following equation: leaf blight index={(1×the number of plants with mild leaf blight)+(2×the number of plants with moderate leaf blight)+(3×the number of plants with severe leaf blight)}×100/(3× the number of plants examined). In addition, plant length, plant weight, the number of leaves, and yield were evaluated. The dirt on a leaf surface was evaluated by a ratio of the surface area soiled whitish to the total surface area of the leaf on a scale of 1 to 5 (not soiled=1, slightly soiled=2, a little soiled=3, moderately soiled=4, much soiled=5). The phytotoxicity was evaluated on a scale of 1 to 5 (normal=1, slightly damaged=2, a little damaged=3, moderately damaged=4, much damaged=5).
The examinations were carried out in the same manner as in Application Example 43 except that the quality improvers of Examples 2 to 21 and Comparative Examples 1 to 4 were used instead of the quality improver of Example 1.

grape tree (Pione) = assay: reducing fruit-cracking and improving fruit quality, spray on grape tree
Method: as §1, with “reducing fruit-cracking” for “preventing peel puffing”, “grape” for “mandarin orange”, “(Pione).” for “(Satsuma mandarin).”, “8” for “2”, “four” for “three”, “July (two-week” for “September (one-month”
The evaluation was carried out on 20 randomly selected clusters. The number of fruit-cracking was expressed as the number of grains with cracking in a cluster examined. The degree of fruit coloring was expressed using a color chart based on a scale of 0 (poorly colored) to 12 (fully colored). The sugar content was determined using a sugar refractometer. The acidity was expressed as titratable tartaric acid content. The dirt on a fruit surface was evaluated by a ratio of the surface area soiled whitish to the total surface area of the fruit on a scale of 1 to 5 (not soiled=1, slightly soiled=2, a little soiled=3, moderately soiled=4, much soiled=5). The phytotoxicity was evaluated on a scale of 1 to 5 (normal=1, slightly damaged=2, a little damaged=3, moderately damaged=4, much damaged=5).
The examinations were carried out in the same manner as in Application Example 64 except that the quality improvers of Examples 2 to 4, 6 to 7, 12, 14, 17 to 18, and Comparative Examples 1 to 4 were used instead of the quality improver of Example 1.

apple tree (Tsugaru) = assay: preventing sunburn, spray on apple tree
Method: The effects of a quality improver in preventing sunburn were evaluated using an apple tree (Tsugaru).
That is, the quality improver of Example 1 was sprayed on the apple tree at the polyvalent metal concentrations shown in Table 12 over three times from early July (two-week interval). Each treatment was conducted on each branch by spraying with a backpack sprayer.
The evaluation was carried out on 50 randomly selected fruits. The incidence of sunburn was expressed as a ratio of the number of fruits with sunburn to the total number of fruits examined. The level of sunburn was expressed on a 4-point scale (none=0, mild=1, moderate=2, severe=3) based on a ratio of the sunburn area to the total surface area of the fruit. The fruit with a sunburn level of 2 or 3 was considered as a seriously damaged fruit. The dirt on a fruit surface was evaluated by a ratio of the surface area soiled whitish to the total surface area of the fruit on a scale of 1 to 5 (not soiled=1, slightly soiled=2, a little soiled=3, moderately soiled=4, much soiled=5). The phytotoxicity was evaluated on a scale of 1 to 5 (normal=1, slightly damaged=2, a little damaged=3, moderately damaged=4, much damaged=5).
The examinations were carried out in the same manner as in Application Example 84 except that the quality improvers of Examples 2 to 4, 6 to 7, 12, 14, 17 to 18, and Comparative Examples 1 to 4 were used instead of the quality improver of Example 1.

SMILES	Fruit skin color ([1]; polyvalent metal 0.030 wt. %)	Fruit skin color ([1]; polyvalent metal 0.075 wt. %)	Degree of peel puffing ([1]; polyvalent metal 0.030 wt. %)	Degree of peel puffing ([1]; polyvalent metal 0.075 wt. %)	Phytotoxicity ([1]; polyvalent metal 0.030 wt. %)	Phytotoxicity ([1]; polyvalent metal 0.075 wt. %)	Sugar content ([1]; polyvalent metal 0.030 wt. %)	Sugar content ([1]; polyvalent metal 0.075 wt. %)	Acidity ([1]; polyvalent metal 0.030 wt. %)	Acidity ([1]; polyvalent metal 0.075 wt. %)	Leaf blight ([2]; polyvalent metal 0.030 wt. %)	Leaf blight ([2]; polyvalent metal 0.075 wt. %)	Number of leaves ([2]; polyvalent metal 0.030 wt. %)	Plant length ([2]; polyvalent metal 0.030 wt. %)	Plant weight ([2]; polyvalent metal 0.030 wt. %)	Number of leaves ([2]; polyvalent metal 0.075 wt. %)	Plant length ([2]; polyvalent metal 0.075 wt. %)	Plant weight ([2]; polyvalent metal 0.075 wt. %)	Phytotoxicity ([2]; polyvalent metal 0.030 wt. %)	Phytotoxicity ([2]; polyvalent metal 0.075 wt. %)	other results
[Ca+2].[Cl-].[Cl-] [calcium chloride]	9.5	9.9	47.0	42.0	4	4	10.0	10.1	1.00	0.99	42.0	40.0	30.3	59.2	185	31.3	60.9	189	4	4	Acidity (grape tree (Pione); polyvalent metal 0.030 wt. %): 0.63; Degree of fruit coloring (grape tree (Pione); polyvalent metal 0.030 wt. %): 9.2; Number of fruit-cracking (grape tree (Pione); polyvalent metal 0.030 wt. %): 4.4; Phytotoxicity (grape tree (Pione); polyvalent metal 0.030 wt. %): 4; Sugar content (grape tree (Pione); polyvalent metal 0.030 wt. %): 18.4; Acidity (grape tree (Pione); polyvalent metal 0.075 wt. %): 0.66; Degree of fruit coloring (grape tree (Pione); polyvalent metal 0.075 wt. %): 9.0; Number of fruit-cracking (grape tree (Pione); polyvalent metal 0.075 wt. %): 4.5; Phytotoxicity (grape tree (Pione); polyvalent metal 0.075 wt. %): 4; Sugar content (grape tree (Pione); polyvalent metal 0.075 wt. %): 18.6; Incidence of sunburn (apple tree (Tsugaru); polyvalent metal 0.030 wt. %): 10.0%; Phytotoxicity (apple tree (Tsugaru); polyvalent metal 0.030 wt. %): 4; Seriously damaged fruit (apple tree (Tsugaru); polyvalent metal 0.030 wt. %): 8.0%; Incidence of sunburn (apple tree (Tsugaru); polyvalent metal 0.075 wt. %): 12.0%; Phytotoxicity (apple tree (Tsugaru); polyvalent metal 0.075 wt. %): 4; Seriously damaged fruit (apple tree (Tsugaru); polyvalent metal 0.075 wt. %): 8.0%
O=C[O-].O=C[O-].[Ca+2] [calcium formate]	10.0	10.4	47.5	42.5	3	3	10.5	11.1	0.93	0.95	30.0	28.0	34.2	60.8	185	35.6	62.8	191	3	3	Acidity (grape tree (Pione); polyvalent metal 0.030 wt. %): 0.54; Degree of fruit coloring (grape tree (Pione); polyvalent metal 0.030 wt. %): 9.7; Number of fruit-cracking (grape tree (Pione); polyvalent metal 0.030 wt. %): 3.9; Phytotoxicity (grape tree (Pione); polyvalent metal 0.030 wt. %): 3; Sugar content (grape tree (Pione); polyvalent metal 0.030 wt. %): 18.9; Acidity (grape tree (Pione); polyvalent metal 0.075 wt. %): 0.53; Degree of fruit coloring (grape tree (Pione); polyvalent metal 0.075 wt. %): 9.7; Number of fruit-cracking (grape tree (Pione); polyvalent metal 0.075 wt. %): 3.6; Phytotoxicity (grape tree (Pione); polyvalent metal 0.075 wt. %): 3; Sugar content (grape tree (Pione); polyvalent metal 0.075 wt. %): 19.3; Incidence of sunburn (apple tree (Tsugaru); polyvalent metal 0.030 wt. %): 10.0%; Phytotoxicity (apple tree (Tsugaru); polyvalent metal 0.030 wt. %): 3; Seriously damaged fruit (apple tree (Tsugaru); polyvalent metal 0.030 wt. %): 6.0%; Incidence of sunburn (apple tree (Tsugaru); polyvalent metal 0.075 wt. %): 10.0%; Phytotoxicity (apple tree (Tsugaru); polyvalent metal 0.075 wt. %): 3; Seriously damaged fruit (apple tree (Tsugaru); polyvalent metal 0.075 wt. %): 6.0%

From patent US8404619B2, “Particulate plant treatment composition” (Maruo Calcium Company Limited, priority 2005, dated 2013)
